Test systems include SNB-75; RXF 393; SW-620; IGROV-1; RPMI-8226; SF-295; T47D; SF-539; OVCAR-3; UO-31; Malme-3M; HOP-62; SK-MEL-5; HCT-15; HOP-92; SK-MEL-28; NCI-H23; Hs-578T; EKVX; NCI-H522.
Common to all, as to test: NCI anticancer screen, dose series, 48 h

Each structure is given as a SMILES string.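 Test compounds were applied to cells in 96-well plates for 48 hours at 5 doses. Abbreviation: GI50, concentration required for 50% inhibition of growth.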 The source made the active and inactive calls. No stated cut-off is given here; in the data, active = GI50 up to about 1.1 µM and inactive = higher.

Take `NC(=O)C1CCCN1Cc1ccc2c(c1)OCO2` (centres undefined): the GI50 in the assay with SNB-75, in the assay on RXF 393, in the assay with SW-620, in the assay with IGROV-1, in the assay on RPMI-8226 and in the assay with SF-295 was > 100 µM (inactive) each time. Besides, the GI50 in the assay with T47D, with SF-539, with OVCAR-3, with UO-31, with Malme-3M and in the assay on HOP-62 was > 100 µM (inactive) in each case. In addition, the GI50 was > 100 µM (inactive) in the assay on SK-MEL-5; more than 100 µM in the assay on HCT-15; > 100 µM (inactive) with HOP-92; > 100 µM (inactive) in the assay with SK-MEL-28; > 100 µM (inactive) in the assay on NCI-H23; > 100 µM (inactive) in the assay with Hs-578T. In addition, the GI50 in the assay on EKVX and with NCI-H522 was > 100 µM (inactive) throughout.

In the case of `CCCc1cn2c(/C=N/NC(=N)N)c(-c3ccc([N+](=O)[O-])cc3)nc2s1`, the GI50 in the assay with SNB-75 is 1.8 µM (inactive); in the assay on RXF 393 it was 1.73 µM (inactive); in the assay with SW-620, 0.342 µM (active); in the assay on IGROV-1 it was 1.77 µM (inactive); in the assay with RPMI-8226 it was 0.45 µM (active); in the assay on SF-295 it was 0.912 µM (active). The GI50 in the assay with T47D was 1.67 µM (inactive); in the assay on SF-539, 4.88 µM (inactive); in the assay on OVCAR-3, 0.548 µM (active); in the assay on UO-31, 1.91 µM (inactive); in the assay on Malme-3M, 2.5 µM (inactive); in the assay on HOP-62 it was 1.77 µM (inactive). Further, the GI50 is 5.81 µM (inactive) with SK-MEL-5; 1.36 µM with HCT-15; 6.01 µM (inactive) in the assay on HOP-92; 1.85 µM (inactive) in the assay with SK-MEL-28; 1.61 µM (inactive) in the assay on NCI-H23; 2.33 µM (inactive) with Hs-578T. Besides, the values for the GI50 in the assay with EKVX and with NCI-H522 were 1.95 µM (inactive) and 2.08 µM (inactive), respectively.

Take `CC(=O)C(CN1CCOCC1)C(c1ccccc1)c1c(O)c2ccccc2oc1=O` (centres undefined): the GI50 with SNB-75 was > 100 µM (inactive); in the assay with RXF 393, 31.6 µM (inactive); with SW-620, > 100 µM (inactive); in the assay on IGROV-1, > 100 µM (inactive); in the assay with RPMI-8226, 43.1 µM (inactive); with SF-295, > 100 µM (inactive). In addition, the GI50 in the assay with T47D was > 100 µM (inactive); in the assay on SF-539, > 100 µM (inactive); in the assay on OVCAR-3, > 100 µM (inactive); in the assay on UO-31 it was > 100 µM (inactive); with Malme-3M, 80.9 µM (inactive); in the assay with HOP-62, > 100 µM (inactive). The GI50 is > 100 µM (inactive) with SK-MEL-5; more than 100 µM in the assay with HCT-15; 32 µM (inactive) in the assay on HOP-92; > 100 µM (inactive) in the assay with SK-MEL-28; > 100 µM (inactive) with NCI-H23; > 100 µM (inactive) with Hs-578T. In addition, the GI50 in the assay on EKVX and in the assay on NCI-H522 was > 100 µM (inactive) throughout.

For the molecule `Cc1ccc(/C=N/n2c(-c3ccc(C)cc3)n[nH]c2=O)cc1`, the GI50 in the assay on SNB-75 is > 100 µM (inactive); in the assay on RXF 393, 23.1 µM (inactive); with SW-620, > 100 µM (inactive); in the assay on IGROV-1 it was > 100 µM (inactive); in the assay with RPMI-8226, > 100 µM (inactive); with SF-295, 48.8 µM (inactive). Besides, the GI50 was > 100 µM (inactive) in the assay with T47D; 50.4 µM (inactive) in the assay on SF-539; > 100 µM (inactive) in the assay on OVCAR-3; 75 µM (inactive) in the assay on UO-31; 80.5 µM (inactive) in the assay on Malme-3M; 61.9 µM (inactive) with HOP-62. The GI50 is 38.1 µM (inactive) with SK-MEL-5; 66.7 µM with HCT-15; 55.8 µM (inactive) with HOP-92; > 100 µM (inactive) in the assay on SK-MEL-28; 29.2 µM (inactive) in the assay with NCI-H23; > 100 µM (inactive) in the assay with Hs-578T. Also, the GI50 in the assay with EKVX and with NCI-H522 was > 100 µM (inactive) throughout.

In the case of `C=Cc1c(C)c2cc3nc(c4c5[nH]c(cc6nc(cc1[nH]2)C(C)=C6CC)c(C)c5C(=O)C4C(=O)OC)C(CCC(=O)OC)C3C` (centres undefined), the GI50 in the assay with SNB-75, in the assay on RXF 393, in the assay with SW-620, with IGROV-1, with RPMI-8226 and with SF-295 was > 100 µM (inactive) throughout. The GI50 in the assay on T47D, with SF-539, in the assay with OVCAR-3, with UO-31, with Malme-3M and with HOP-62 was > 100 µM (inactive) each time. In addition, the GI50 was > 100 µM (inactive) with SK-MEL-5; more than 100 µM in the assay on HCT-15; > 100 µM (inactive) in the assay on HOP-92; > 100 µM (inactive) in the assay on SK-MEL-28; > 100 µM (inactive) in the assay with NCI-H23; 81.3 µM (inactive) in the assay on Hs-578T. The GI50 with EKVX and in the assay with NCI-H522 was > 100 µM (inactive) throughout.

In the case of `C/C(=N\NC(N)=S)c1sc(-n2nc(-c3ccccc3)cc2-c2ccccc2)nc1C`, the GI50 in the assay on SNB-75 is > 100 µM (inactive); with RXF 393, > 100 µM (inactive); in the assay on SW-620, > 100 µM (inactive); in the assay with IGROV-1 it was 16 µM (inactive); with RPMI-8226 it was 16.9 µM (inactive); in the assay on SF-295, > 100 µM (inactive). The GI50 was 23.2 µM (inactive) in the assay on T47D; > 100 µM (inactive) in the assay with SF-539; 98.2 µM (inactive) in the assay on OVCAR-3; 69.7 µM (inactive) with UO-31; > 100 µM (inactive) with Malme-3M; > 100 µM (inactive) in the assay on HOP-62. The GI50 was 76.4 µM (inactive) with SK-MEL-5; 94.4 µM in the assay on HCT-15; > 100 µM (inactive) in the assay on HOP-92; > 100 µM (inactive) in the assay with SK-MEL-28; > 100 µM (inactive) with NCI-H23; > 100 µM (inactive) with Hs-578T. Moreover, the GI50 is 50.1 µM (inactive) in the assay on EKVX and 79.4 µM (inactive) in the assay on NCI-H522.

Regarding `COC(=O)[C@@]12C(=O)C(C)C(=O)[C@]1(C)C(C)=C[C@H]1[C@]3(C=O)CC[C@H](OC(C)=O)C(C)(C)[C@H]3CC[C@@]12C` (some centres undefined), the GI50 was > 100 µM (inactive) in the assay on SNB-75; > 100 µM (inactive) in the assay on RXF 393; > 100 µM (inactive) in the assay with SW-620; 75.2 µM (inactive) with RPMI-8226; > 100 µM (inactive) in the assay on SF-295; > 100 µM (inactive) in the assay on T47D. In addition, the GI50 in the assay on SF-539, with OVCAR-3, in the assay on UO-31, in the assay with Malme-3M, with HOP-62 and with SK-MEL-5 was > 100 µM (inactive) each time. Further, the GI50 in the assay on HCT-15 was more than 100 µM; in the assay with HOP-92 it was > 100 µM (inactive); in the assay on SK-MEL-28, > 100 µM (inactive); in the assay on NCI-H23, > 100 µM (inactive); in the assay with Hs-578T it was > 100 µM (inactive); with EKVX it was > 100 µM (inactive). Moreover, the GI50 with NCI-H522 is 51.9 µM (inactive).

Regarding `COC[C@H]1C(=O)NCC(=O)N2N=CCC[C@H]2C(=O)N(O)[C@H](C)C(=O)O[C@@H](C(C)C)[C@H](NC(=O)[C@@](C)(O)[C@]2(O)CC[C@@H](CC(C)C)[C@H](C)O2)C(=O)N2NCCC[C@@H]2C(=O)N1O`, the GI50 in the assay with SNB-75 was < 0.0109 µM (active); with RXF 393, 0.0172 µM (active); with SW-620, 0.0157 µM (active); in the assay with IGROV-1 it was 0.0157 µM (active); with RPMI-8226, 0.0208 µM (active); in the assay on SF-295, 0.0193 µM (active). The GI50 in the assay with T47D is 0.0228 µM (active); with SF-539, 0.0172 µM (active); with OVCAR-3, 0.0183 µM (active); in the assay with UO-31, 0.169 µM (active); with Malme-3M, 0.0171 µM (active); in the assay on HOP-62, 0.0175 µM (active). In addition, the GI50 was 0.0156 µM (active) in the assay with SK-MEL-5; 0.12 µM with HCT-15; 0.0174 µM (active) with HOP-92; 0.0174 µM (active) in the assay with SK-MEL-28; 0.0163 µM (active) with NCI-H23; 0.0179 µM (active) in the assay with Hs-578T. Besides, the values for the GI50 in the assay with EKVX and with NCI-H522 were 0.0292 µM (active) and 0.0178 µM (active), respectively.

On to `c1ccc2c(c1)ccn2CCc1c[nH]c2ccccc12`, for which the GI50 is > 10 µM (inactive) in the assay with SNB-75; 9.31 µM (inactive) in the assay with RXF 393; > 10 µM (inactive) with SW-620; > 10 µM (inactive) with IGROV-1; > 10 µM (inactive) with RPMI-8226; > 10 µM (inactive) in the assay on SF-295. The GI50 in the assay on T47D was > 10 µM (inactive); in the assay with SF-539, > 10 µM (inactive); in the assay with OVCAR-3, > 10 µM (inactive); in the assay on UO-31, 9.86 µM (inactive); with Malme-3M, > 10 µM (inactive); in the assay with HOP-62 it was > 10 µM (inactive). Also, the GI50 in the assay on SK-MEL-5 is > 10 µM (inactive); in the assay with HCT-15, more than 10 µM; in the assay on HOP-92, > 10 µM (inactive); in the assay on SK-MEL-28, > 10 µM (inactive); in the assay on NCI-H23 it was > 10 µM (inactive); in the assay on Hs-578T, > 10 µM (inactive). Besides, the GI50 with EKVX and in the assay on NCI-H522 was > 10 µM (inactive) each time.

For the molecule `CC(=O)c1cc2c(s1)C(=O)c1ccccc1C2=O`, the GI50 was 2.4 µM (inactive) with SNB-75; 8.18 µM (inactive) in the assay with RXF 393; 0.951 µM (active) in the assay with SW-620; 2.01 µM (inactive) in the assay on IGROV-1; 2.38 µM (inactive) in the assay with RPMI-8226; 2.79 µM (inactive) with SF-295. For the same molecule, the GI50 in the assay with T47D is 4.42 µM (inactive); in the assay on SF-539, 1.44 µM (inactive); with OVCAR-3, 0.513 µM (active); with UO-31 it was 1.79 µM (inactive); with Malme-3M it was 1.28 µM (inactive); with HOP-62 it was 2.44 µM (inactive). For the same molecule, the GI50 in the assay with SK-MEL-5 is 0.26 µM (active); with HCT-15, 0.61 µM; in the assay on HOP-92, 4.18 µM (inactive); in the assay with SK-MEL-28 it was 8.05 µM (inactive); in the assay on NCI-H23 it was 0.457 µM (active); in the assay with Hs-578T it was 2.84 µM (inactive). In addition, the results for the GI50 with EKVX and in the assay with NCI-H522 were 4.39 µM (inactive) and 0.944 µM (active), respectively.

The values are drawn from ChEMBL document CHEMBL1201862, “PubChem BioAssay data set” (2004).
